According to the supplement of paper PMC10307832:

Experiments:
Assay in all cases: relative viability (nuclei count vs DMSO), 5 days (fraction); higher = more cells survive
[1] = compound: CN1CCC(CNc2ccc3ncc(-c4cccc(OC(F)(F)F)c4)n3n2)CC1 [SGI-1776] + CCNC(=O)c1noc(-c2cc(C(C)C)c(O)cc2O)c1-c1ccc(CN2CCOCC2)cc1 [Luminespib] (partner 0.01 µM)
Method in brief: (§1)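 Nuclei were stained with Hoechst during a one-step fixation (final 0.05% Triton X-100, 1% formaldehyde, 1 ug/ml Hoechst) carried out 5 days after dosing, then counted on 4× images. The cells, lung cancer lines in 1536-well plates, had been dosed by pin tool the day after seeding with one drug alone or a fixed anchor-drug dose plus five library-drug doses (not always all listed) in √10 steps. Relative viability is the nuclei count in treated wells divided by that in vehicle wells, and each value is the median of duplicate plates.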

[2] = compound: Nc1ccccc1NC(=O)c1ccc(CNC(=O)OCc2cccnc2)cc1 [Entinostat] + CCNC(=O)c1noc(-c2cc(C(C)C)c(O)cc2O)c1-c1ccc(CN2CCOCC2)cc1 [Luminespib] (partner 0.01 µM)
Method in brief: as §1

[3] = compound: Nc1ccccc1NC(=O)c1ccc(CNC(=O)OCc2cccnc2)cc1 [Entinostat] + C[C@@H](Oc1cc(-c2cnn(C3CCNCC3)c2)cnc1N)c1c(Cl)ccc(F)c1Cl [Crizotinib] (partner 1 µM)
Method in brief: as §1

[4] = compound: Nc1ccccc1NC(=O)c1ccc(CNC(=O)OCc2cccnc2)cc1 [Entinostat] + N=C(N)NC(=N)NCCc1ccccc1 [Phenformin] (partner 250 µM)
Method in brief: as §1

| Cell Line | relative viability ([1]; first compound 0.08 µM) | relative viability ([1]; first compound 0.8 µM) | relative viability ([1]; first compound 2.53 µM) | relative viability ([1]; first compound 8 µM) | relative viability ([2]; first compound 0.02 µM) | relative viability ([2]; first compound 0.06325 µM) | relative viability ([2]; first compound 0.2 µM) | relative viability ([2]; first compound 0.6325 µM) | relative viability ([2]; first compound 2 µM) | relative viability ([3]; first compound 0.02 µM) | relative viability ([3]; first compound 0.06325 µM) | relative viability ([3]; first compound 0.2 µM) | relative viability ([3]; first compound 0.6325 µM) | relative viability ([3]; first compound 2 µM) | relative viability ([4]; first compound 0.02 µM) | relative viability ([4]; first compound 0.06325 µM) | relative viability ([4]; first compound 0.2 µM) | relative viability ([4]; first compound 0.6325 µM) | relative viability ([4]; first compound 2 µM) |
| --- | --- | --- | --- | --- | --- | --- | --- | --- | --- | --- | --- | --- | --- | --- | --- | --- | --- | --- | --- |
| NCI-H2085 | 0.481 | 0.44 | 0.513 | 0.333 | 0.414 | 0.426 | 0.384 | 0.278 | 0.251 | 0.991 | 0.933 | 0.769 | 0.57 | 0.414 | 0.716 | 0.774 | 0.706 | 0.461 | 0.375 |
| NCI-H1792 | 0.371 | 0.558 | 0.431 | 0.264 | 0.5 | 0.519 | 0.362 | 0.392 | 0.469 | 0.979 | 1.04 | 0.86 | 0.796 | 0.569 | 0.318 | 0.441 | 0.315 | 0.101 | 0.17 |
| NCI-H2347 | 0.344 | 0.558 | 0.324 | 0.539 | 0.337 | 0.378 | 0.348 | 0.193 | 0.081 | 0.686 | 0.581 | 0.653 | 0.5 | 0.408 | 0.378 | 0.243 | 0.234 | 0.181 | 0.151 |
| ABC-1 | 0.308 | 0.577 | 0.52 | 0.51 | 0.661 | 0.49 | 0.609 | 0.555 | 0.358 | 0.925 | 1.24 | 1.17 | 0.814 | 0.28 | 0.215 | 0.267 | 0.263 | 0.268 | 0.215 |
| 201T | 1.04 | 1.09 | 1.05 | 1.03 | 1.03 | 1.04 | 0.995 | 0.925 | 0.747 | 1.03 | 1.03 | 0.919 | 0.743 | 0.754 | 0.46 | 0.414 | 0.451 | 0.382 | 0.303 |
| NCI-H1755 | 0.482 | 0.515 | 0.408 | 0.326 | 0.483 | 0.459 | 0.678 | 0.528 | 0.415 | 0.832 | 0.827 | 0.771 | 0.462 | 0.347 | 0.605 | 0.613 | 0.569 | 0.513 | 0.349 |
| NCI-H596 | 0.975 | 0.934 | 0.798 | 0.941 | 0.836 | 0.935 | 0.992 | 0.905 | 0.597 | 1 | 0.982 | 0.992 | 0.978 | 0.52 | 0.752 | 0.74 | 0.823 | 0.734 | 0.554 |
| NCI-H1651 | 0.823 | 0.977 | 0.784 | 0.642 | 0.795 | 1.01 | 0.742 | 0.724 | 0.64 | 0.877 | 0.9 | 0.878 | 0.807 | 0.721 | 0.326 | 0.371 | 0.453 | 0.335 | 0.185 |
| NCI-H1437 | 1.12 | 1.19 | 1.22 | 1.12 | 0.829 | 0.853 | 0.552 | 0.301 | 0.257 | 0.801 | 0.641 | 0.469 | 0.174 | 0.109 | 0.288 | 0.261 | 0.199 | 0.197 | 0.215 |
| NCI-H1975 | 0.302 | 0.137 | 0.208 | 0.106 | 0.238 | 0.209 | 0.217 | 0.199 | 0.13 | 0.762 | 0.778 | 0.564 | 0.278 | 0.201 | 0.376 | 0.348 | 0.342 | 0.238 | 0.19 |
| BEN | 0.434 | 0.39 | 1.1 | 0.475 | 0.217 | 0.32 | 0.263 | 0.472 | 0.349 | 0.985 | 0.884 | 0.997 | 0.631 | 0.31 | 0.247 | 0.267 | 0.258 | 0.238 | 0.254 |
| NCI-H322M | 0.999 | 0.901 | 0.881 | 0.635 | 0.909 | 1.13 | 1.06 | 1.1 | 1.03 | 1.03 | 0.961 | 0.98 | 0.809 | 0.651 | 0.799 | 0.963 | 0.99 | 0.809 | 0.664 |
| SK-MES-1 | 0.856 | 0.849 | 0.395 | 0.386 | 0.798 | 1.03 | 0.891 | 0.882 | 0.353 | 0.984 | 1.03 | 1.09 | 0.955 | 0.67 | 0.614 | 0.699 | 0.721 | 0.657 | 0.504 |
| HOP-62 | 0.835 | 0.93 | 0.941 | 0.89 | 0.944 | 0.818 | 0.824 | 0.71 | 0.431 | 0.951 | 1.03 | 0.812 | 0.618 | 0.288 | 0.614 | 0.6 | 0.773 | 0.412 | 0.266 |
| NCI-H2405 | 0.647 | 0.632 | 0.538 | 0.452 | 0.789 | 0.767 | 0.944 | 0.808 | 0.597 | 0.85 | 0.887 | 0.906 | 0.805 | 0.598 | 0.392 | 0.462 | 0.414 | 0.352 | 0.358 |
| NCI-H1650 | 0.211 | 0.198 | 0.195 | 0.172 | 0.214 | 0.198 | 0.185 | 0.212 | 0.195 | 0.923 | 0.928 | 0.988 | 0.729 | 0.359 | 0.54 | 0.498 | 0.49 | 0.419 | 0.256 |
| NCI-H1355 | 0.68 | 0.625 | 0.607 | 0.551 | 0.724 | 0.611 | 0.616 | 0.504 | 0.418 | 1.06 | 1.01 | 0.9 | 0.743 | 0.599 | 0.48 | 0.439 | 0.502 | 0.368 | 0.332 |
| NCI-H1734 | 0.193 | 0.201 | 0.19 | 0.163 | 0.227 | 0.204 | 0.185 | 0.213 | 0.181 | 0.622 | 0.709 | 0.894 | 0.555 | 0.423 | 0.439 | 0.509 | 0.488 | 0.342 | 0.315 |
| LXF-289 | 0.688 | 0.654 | 0.665 | 0.598 | 0.754 | 0.675 | 0.739 | 0.494 | 0.354 | 0.789 | 0.806 | 0.788 | 0.669 | 0.331 | 0.538 | 0.554 | 0.532 | 0.414 | 0.354 |
| PC-3 [JPC-3] | 0.739 | 0.573 | 0.741 | 0.628 | 0.726 | 0.668 | 0.5 | 0.51 | 0.365 | 0.965 | 1.01 | 0.79 | 0.658 | 0.44 | 0.449 | 0.482 | 0.523 | 0.449 | 0.448 |
| NCI-H2087 | 0.138 | 0.212 | 0.183 | 0.17 | 0.157 | 0.125 | 0.18 | 0.127 | 0.143 | 0.716 | 0.672 | 0.818 | 0.559 | 0.467 | 0.425 | 0.474 | 0.416 | 0.319 | 0.168 |
| NCI-H2170 | 0.723 | 0.669 | 0.668 | 0.419 | 0.778 | 0.654 | 0.643 | 0.47 | 0.329 | 1.17 | 1.06 | 1.02 | 0.704 | 0.491 | 0.466 | 0.407 | 0.444 | 0.376 | 0.297 |
| NCI-H2228 | 0.169 | 0.139 | 0.164 | 0.13 | 0.187 | 0.132 | 0.135 | 0.184 | 0.102 | 0.479 | 0.429 | 0.337 | 0.378 | 0.221 | 0.285 | 0.334 | 0.395 | 0.22 | 0.207 |
| H3255 | 0.988 | 1.1 | 0.894 | 0.665 | 1.02 | 0.954 | 0.652 | 0.613 | 0.321 | 0.9 | 0.747 | 0.777 | 0.452 | 0.286 | 0.378 | 0.376 | 0.272 | 0.316 | 0.267 |
| HCC-15 | 0.353 | 0.34 | 0.325 | 0.186 | 0.352 | 0.301 | 0.261 | 0.359 | 0.257 | 0.792 | 0.744 | 0.745 | 0.548 | 0.307 | 0.491 | 0.461 | 0.453 | 0.246 | 0.175 |
| NCI-H727 | 0.408 | 0.337 | 0.311 | 0.253 | 0.326 | 0.413 | 0.364 | 0.328 | 0.459 | 0.765 | 0.731 | 0.693 | 0.628 | 0.342 | 0.457 | 0.689 | 0.581 | 0.436 | 0.43 |
| NCI-H2023 | 0.746 | 0.77 | 0.693 | 0.363 | 0.648 | 0.528 | 0.313 | 0.111 | 0.0763 | 0.526 | 0.596 | 0.324 | 0.17 | 0.109 | 0.355 | 0.407 | 0.327 | 0.162 | 0.0942 |
| HCC-44 | 1.06 | 0.953 | 1.01 | 0.693 | 1.04 | 0.889 | 0.741 | 0.505 | 0.324 | 0.773 | 0.614 | 0.453 | 0.339 | 0.22 | 0.204 | 0.197 | 0.129 | 0.11 | 0.0548 |
